This note sets out measurements from patent publication US20030166629A1, “Cyclic quaternary ammonium compounds” (priority 1999, published 2003).

The subject of this assay is citric acid-induced cough responses. The experiment in a line: Antitussive activity against citric acid aerosol-induced cough in conscious guinea-pigs. Type of assay: in vivo, guinea-pig. The note with it: aerosol pre-treatment at 5.0 mg/ml for 5 minutes immediately before citric acid (1M) exposure, vehicle 25% ethanol, 15 minute observation period. The source says: The following method is one of the general methods available to determine the antitussive activity of the compounds of the present invention.
Male albino Dunkin-Hartley strain guinea-pigs (weight 300-400 g) can be obtained from various commercial suppliers.
The method is a modification of that described by Adcock J. J., Schneider C. and Smith T. W., “Effects of Morphine and a Novel Opioid Pentapeptide BW443C, on Cough, Nociception and Ventilation in the Unanaesthetized Guinea-pig”, Br. J. Pharmacol., 93, 93-100 (1988). […]
Cylinder air is introduced into the exposure chamber at a flow rate of 1 liter/min, maintained by a needle valve and monitored by a rotameter. […]
Cough responses are induced by exposure to an aerosol of citric acid (1M) for 10 minutes. Animals are continuously monitored by trained observer, and the number of coughs are counted during a 15 minute period from commencement of the citric acid aerosol administration. […]
The three types of response are differentiated primarily by sound and visual observation. […] Each cough is marked on the Grass polygraph paper trace, and from these record numbers, frequency and time of onset of coughs are determined. […]
Quantities of drugs are weighed out and dissolved in a vehicle. […] The sequence of pre-treatment administration is determined according to a 4×4 Latin Square design. […]

Turning to `CCCCC[N+]1(C)CCCCC1C(=O)Nc1c(C)cccc1C.[I-]` (stereo not shown) [N-methyl-bupivacaine iodide, 2-{[(2,6-Dimethylphenyl)amino]carbonyl}-1-methyl-1-pentylpiperidinium iodide], the “inhibition of cough responses compared with vehicle pre-treated guinea pigs” value is recorded as greater than 90%.
